US11458079B2, “Sunscreen cosmetic” (JO COSMETICS CO., LTD., priority 2019, dated 2022)
Entries after “also recorded” stand apart in the source; their conditions may differ.

Test: Dissolution in the aqueous phase (C phase) of the O/W cosmetic composition
Assay type: physicochemical
Conditions: 5.00 mass % in C phase (aqueous phase) of O/W formulation of Comparative Example 4
Source text: (4) The gel emulsion was mixed with the components of C phase (aqueous phase), thereby preparing an O/W cosmetic composition. […] Hydrophobized fine particle titanium oxide” alone, the sunscreen cosmetic of Comparative Example 3 simultaneously containing “9. Trans-resveratrol aglycone,” which was not a polysaccharide, and “7. […] Since it is generally difficult to apply the formulation that could not be produced in such a small lot experiment to mass production, the production of emulsified cosmetic compositions for use in sunscreen containing trans-resveratrol monosaccharide glycoside turned out to be impractical.

Solubility in the aqueous phase / water solubility (listed as resveratrol monosaccharide glycoside): could not be dissolved uniformly
Structure (SMILES): OC[C@H]1O[C@@H](Oc2cc(O)cc(/C=C/c3ccc(O)cc3)c2)[C@H](O)[C@@H](O)[C@@H]1O [piceid, Piceid]
Solubility in the aqueous phase / water solubility: could not be dissolved; also recorded: insufficient
